From PMC11448502, “Cryo-EM structures of the human P2X1 receptor reveal subtype-specific architecture and antagonism by supramolecular ligand-binding” (Nature Communications, 2024)

What was measured:
P2X1 = settings: reviewer comment, no reference given; cited from earlier work
[1] = molecular target: the molecule itself; test: cryo-EM structure; single particle cryo-EM of purified hP2X1 in C12M (DDM)/CHS, 20 mM HEPES pH 7.0, 100 mM NaCl, 5 mg/mL; three states: apo closed, ATP-bound desensitized (endogenous ATP), NF449-bound inhibited (400 uM NF449)

Molecule	potency for P2X1 relative to P2X3 (P2X1) [times]	stoichiometry N [1]
Nc1ncnc2c1ncn2[C@@H]1O[C@H](COP(=O)(O)CP(=O)(O)OP(=O)(O)O)[C@@H](O)[C@H]1O [α, β-MeATP]	10	
full-length wild-type human P2X1 receptor (receptor, UniProt P51575 1-399, looked up, N-linked glycosylation (N-acetylglucosamine modelled in the extracellular domain, e.g. at N184), human P2X1 receptor (P2X purinoceptor 1), full-length wild type, no mutations or truncations; Cytoplasmic N- and C-terminal residues are not visible in the maps; also called hP2X1; hP2X1-WT; source: HEK293 GNTI- cells, BacMam baculovirus transduction; solubilised in DDM/CHS, purified (TALON resin, HRV 3C protease digestion, SEC on Superdex 200 increase)) MARRFQEELAAFLFEYDTPRMVLVRNKKVGVIFRLIQLVVLVYVIGWVFLYEKGYQTSSGLISSVSVKLKGLAVTQLPGLGPQVWDVADYVFPAQGDNSFVVMTNFIVTPKQTQGYCAEHPEGGICKEDSGCTPGKAKRKAQGIRTGKCVAFNDTVKTCEIFGWCPVEVDDDIPRPALLREAENFTLFIKNSISFPRFKVNRRNLVEEVNAAHMKTCLFHKTLHPLCPVFQLGYVVQESGQNFSTLAEKGGVVGITIDWHCDLDWHVRHCRPIYEFHGLYEEKNLSPGFNFRFARHFVENGTNYRHLFKVFGIRFDILVDGKAGKFDIIPTMTTIGSGIGIFGVATVLCDLLLLHILPKRHYYKQKKFKYAEDMGPGAAERDLAATSSTLGLQENMRTS		3
